The source of these data is patent US20060194740A1, “NOD1 as an anti-tumor agent” (priority 2005, published 2006).

Assay [1] concerns MCF-7 C20/Nod1 cells. In words: Propidium iodide exclusion apoptosis assay, MCF-7 C20/Nod1 cells. Type of assay: cell-based, human. The note with it: C20/Nod1 and Blasto cells, charcoal-treated serum, increasing estrogen (FIG. 12A). As to the method:
(§1) Cell viability assays. Propidium iodide exclusion assay: Cells were stimulated as indicated for 2 days. Subsequently, cells were harvested, washed twice in FACS buffer (PBS containing 1% FCS and 0.1% NaN3) and resuspended in propidium iodide (PI)—containing FACS buffer (4 ug/ml). The extent of cell death was analyzed with a FACSCalibur flow cytometer (Becton Dickinson, Mountain View, Calif.). DAPI staining: MCF-7 cells were plated in chamber slides, and stimulated for 2 days. Cells were washed with PBS and apoptotic nuclei were stained with 1 μg/ml DAPI (Sigma Chemical Co., St. Louis, Mo.). Cells were fixed in 4% paraformaldehyde and examined by fluorescence microscopy.
(§2) To further investigate the role of Nod1 in apoptosis, a variety of cell types were incubated with the Nod1 ligand, […] (γTriDAP), which specifically activates Nod1. The cell types tested included the parental MCF-7 cell line, the Nod1-deficient MCF-7C20 clone, and a cell line engineered to contain an additional human Nod1 allele (MCF-7Nod1) so that Nod1 was over-expressed. To determine whether the resistance of C20 cells to γTriDAP-induced apoptosis resulted from the absence of Nod1, human Nod1 was stably expressed in MCF-7 C20 cells to produce Nod1-sufficient C20 cells (C20/Nod1). As another control, the parental MCF-7 cell line was transfected with an empty retroviral vector to generate MCF-7 Blasto cells. Cells were treated with γTriDAP in the presence or absence of cycloheximide (CHX) and cell death was then determined by propidium iodide staining and flow cytometry.
To determine whether the presence of estrogens modulates Nod1-induced apoptotic pathway, cells were cultured in medium containing charcoal-treated serum.

Assay [2] concerns MCF-7 C20 cells. In words: Human xenograft in SCID mice, MCF-7 C20 cells. The assay is classed as in vivo. The note with it: mice injected with MCF-7 C20 cells, estrogen pellets present (FIG. 11B). As for the experimental part: (§3) Human xenografts in nude mice. MCF-7 Blasto, MCF-7 C20 and MCF-7 C20/Nod1 cells were trypsinized, washed once with PBS and resuspended to a concentration of 1.5×10^7/ml. Two hundred microliters of each suspension were inoculated subcutaneously into the flank of athymic SCID/SCID or SCID/Nod (non-obese diabetic) female mice. Tumor size was assessed once a week. Tumor volume was calculated.
(§4) Nod1 controls tumor formation. Nod1-dependent apoptotic pathways might be important in a number of biological processes, including tumor cell growth regulation and a failure of malignant cells to undergo cell death, leading to tumorigenesis. A xenograft model of tumor growth in SCID mice was used to examine the role that Nod1 plays in tumor growth and tumor rejection. Populations of MCF-7Blasto, MCF-7C20 and MCF-7C20Nod1 cells (each totaling about 3×10^6 cells), were separately injected subcutaneously into the flanks of female mice to induce tumor growth in SCID/SCID or SCID/Nod1 mice. Animals were scored for tumor formation once a week post-injection for up to 8 weeks.
(§5) In most studies, tumor formation by MCF-7 cells requires supplementation of estrogens for tumorigenesis in nude mice, even when cells are inoculated at high concentration. To further examine the role of estrogen in tumorigenesis, all three cell lines were injected into mice along with estrogen pellets (FIG. 11B). […]
In general terms: Xenograft models place foreign cells or tissue in a host animal.

Assay [3] has as its system MCF-7 C20 cells. Nature of the assay: 3H-thymidine proliferation assay, MCF-7 C20 cells. As to conditions: cells grown in the absence of estrogen, estrogen added; 3H-thymidine (FIG. 11D). The assay is classed as cell-based, human. As for the experimental part:
Retroviral transfections. The various genes used in this study were cloned into pMSCV-Blasto, pBabe-Puro or pBabe-Neo retroviral vectors. MCF-7 cells were stably transfected using available procedures. Briefly, amphotropic 293 cells were transfected with retroviral vectors encoding selected Nod1, Nod2 and other proteins. Twenty-four hours post-transfection, cells were incubated at 32° C. overnight to produce viral particles. Target cells were infected the next day with virus-containing 293 cell supernatants containing recombinant retroviral particles. Cells were selected with 10 μg/ml blasticidin S (Calbiochem EMD Biosciences Inc., San Diego, Calif.), 500 μg/ml […] (Invitrogen, Carlsbad, Calif.) or 5 μg/ml puromycin (Calbiochem). The expression of all constructs was confirmed by Western blot analysis. To determine the effects of 17β-estradiol (Calbiochem), cells were cultured in phenol red-free DMEM supplemented with […]. Cells were seeded in 96 well plates with various concentration of 17β-estradiol (E2) for 24 h and pulsed with ^3H-thymidine (1 μCi/well, MP Biomedicals, Irvine, Calif.). Cells were harvested on glass fiber filters and radioactivity measured by liquid scintillation. […]

Assay [4] deals with MCF-7 C20/Nod1. Nature of the assay: Human xenograft in SCID mice, MCF-7 C20/Nod1 cells. Type of assay: in vivo. As to conditions: mice that received MCF-7 C20/Nod1, estrogen pellets present (FIG. 11B). As to the method: as §3, §4, §5
Assay [5] deals with MCF-7 Blasto cells. Nature of the assay: Human xenograft in SCID mice, MCF-7 Blasto cells. The assay is classed as in vivo. The note with it: mice injected with MCF-7 Blasto cells, estrogen pellets present (FIG. 11B). As to the method:
as §3, §4, §5

Assay [6] relates to MCF-7 C20 cells. Nature of the assay: Propidium iodide exclusion cell death assay, Nod1-deficient MCF-7 C20 cells. Type of assay: cell-based, human. As to conditions: C20 cells, charcoal-treated serum, γTriDAP/CHX (FIG. 12A, middle panel). As for the experimental part:
as §1, with “Propidium iodide exclusion assay: Cells were stimulated as indicated for 2 days.” left out
as §2

As to 17β-estradiol [estrogen], in assay [1], the “effect of estrogen upon γTriDAP-induced apoptosis” value was “apoptosis increased in a dose-dependent manner”. Moreover, the tumor growth entry in assay [2] was “grew even larger”; in assay [4] it was “did not grow tumors”; in assay [5], “tumors grew”. Moreover, the proliferative response result in assay [3] is reported as “strong proliferative response”. Besides, the “effect of estrogen upon apoptosis” value in assay [6] is reported as “little or no effect”.
